Key:
Assay type in all cases: cell-based
[1] = biological target: T1, EGFR exon 20 SVD Ins D770_N771 (Ba/F3 cells) (Homo sapiens, UniProt P00533, INS770SVD); assay: Inhibitor activity on EGFR-dependent cell growth (CellTiter-Glo, 72 h), Ba/F3 EGFR exon 20 SVD Ins; conditions: read-out: BaF3 SVD IC50
T1 construct: expressed in transfected cells; host or cells: Ba/F3 (murine pro-B cells), retroviral transduction, puromycin selection, IL3-independent pool
Method in brief: (§1)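 IC50s derive from a sigmoidal dose–response fit of CellTiter-Glo signal. The signal was normalised between […]-treated cells and cell-free medium. Ba/F3 mutant-EGFR cells, seeded at 400–800/well depending on the line, had 72 h of exposure to a 10-point, 3-fold compound series.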

[2] = biological target: T2, EGFR exon 20 ASV Ins V769_D770 (Ba/F3 cells) (Homo sapiens, UniProt P00533, INS769ASV); assay: Inhibitor activity on EGFR-dependent cell growth (CellTiter-Glo, 72 h), Ba/F3 EGFR exon 20 ASV Ins; conditions: read-out: BaF3 ASV IC50
T2 construct: expressed in transfected cells; host or cells: Ba/F3 (murine pro-B cells), retroviral transduction, puromycin selection, IL3-independent pool
T2 sequence (P00533 with tags, fused parts or gaps INS769ASV): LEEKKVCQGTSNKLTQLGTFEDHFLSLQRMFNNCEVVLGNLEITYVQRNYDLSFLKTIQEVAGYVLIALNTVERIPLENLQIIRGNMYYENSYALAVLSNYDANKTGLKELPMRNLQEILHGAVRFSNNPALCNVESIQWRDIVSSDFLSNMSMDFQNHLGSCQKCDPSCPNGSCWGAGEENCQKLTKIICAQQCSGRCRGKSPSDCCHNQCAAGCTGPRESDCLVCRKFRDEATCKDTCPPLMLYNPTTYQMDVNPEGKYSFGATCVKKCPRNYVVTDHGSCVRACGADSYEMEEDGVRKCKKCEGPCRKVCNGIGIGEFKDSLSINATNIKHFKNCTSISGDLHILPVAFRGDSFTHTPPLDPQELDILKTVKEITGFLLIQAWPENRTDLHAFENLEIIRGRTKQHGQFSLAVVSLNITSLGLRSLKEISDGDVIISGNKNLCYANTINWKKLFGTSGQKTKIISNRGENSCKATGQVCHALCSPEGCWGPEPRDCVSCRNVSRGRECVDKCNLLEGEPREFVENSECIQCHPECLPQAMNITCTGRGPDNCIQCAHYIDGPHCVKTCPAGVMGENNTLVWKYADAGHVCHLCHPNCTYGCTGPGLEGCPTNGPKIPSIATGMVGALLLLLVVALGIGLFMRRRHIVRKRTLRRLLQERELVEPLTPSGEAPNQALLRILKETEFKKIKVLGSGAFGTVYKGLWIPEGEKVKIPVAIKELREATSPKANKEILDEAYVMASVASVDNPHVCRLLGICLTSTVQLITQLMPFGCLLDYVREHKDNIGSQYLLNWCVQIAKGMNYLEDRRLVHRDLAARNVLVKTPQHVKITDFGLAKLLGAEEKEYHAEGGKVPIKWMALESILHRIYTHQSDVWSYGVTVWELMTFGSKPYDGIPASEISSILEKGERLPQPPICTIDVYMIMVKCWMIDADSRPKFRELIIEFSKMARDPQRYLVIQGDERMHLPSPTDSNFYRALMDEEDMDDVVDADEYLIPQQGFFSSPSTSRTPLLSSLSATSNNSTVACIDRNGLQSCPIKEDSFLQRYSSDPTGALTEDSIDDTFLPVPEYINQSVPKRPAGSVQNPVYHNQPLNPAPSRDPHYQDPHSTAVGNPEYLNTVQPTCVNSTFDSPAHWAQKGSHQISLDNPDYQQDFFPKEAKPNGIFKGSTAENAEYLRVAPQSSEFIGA
Method in brief: as §1

[3] = biological target: T3, EGFR exon 20 FQEA Ins A763_V764 (Ba/F3 cells) (Homo sapiens, UniProt P00533, INS763FQEA); assay: Inhibitor activity on EGFR-dependent cell growth (CellTiter-Glo, 72 h), Ba/F3 EGFR exon 20 FQEA Ins; conditions: read-out: BaF3 FQEA IC50
T3 construct: expressed in transfected cells; host or cells: Ba/F3 (murine pro-B cells), retroviral transduction, puromycin selection, IL3-independent pool
Method in brief: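 Steps: seed Ba/F3 EGFR-mutant pools (800 cells/well FQEA and exon 19del; 600 L858R/C797S; 400 L858R). Add 120 nL of serially diluted compound and incubate 72 h. Equilibrate to room temperature, add CellTiter-Glo and read after 30 min. Fit IC50.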

EGFR WT (Ba/F3 cells) = biological target: T4, EGFR WT (Ba/F3 cells) (Homo sapiens, UniProt P00533); assay: Inhibitor activity on EGFR-dependent cell growth (CellTiter-Glo, 72 h), Ba/F3 EGFR WT; conditions: read-out: BaF3 WT IC50
T4 construct: expressed in transfected cells; host or cells: Ba/F3 (murine pro-B cells), retroviral transduction, puromycin selection, maintained with EGF
T4 sequence (P00533 25-1210): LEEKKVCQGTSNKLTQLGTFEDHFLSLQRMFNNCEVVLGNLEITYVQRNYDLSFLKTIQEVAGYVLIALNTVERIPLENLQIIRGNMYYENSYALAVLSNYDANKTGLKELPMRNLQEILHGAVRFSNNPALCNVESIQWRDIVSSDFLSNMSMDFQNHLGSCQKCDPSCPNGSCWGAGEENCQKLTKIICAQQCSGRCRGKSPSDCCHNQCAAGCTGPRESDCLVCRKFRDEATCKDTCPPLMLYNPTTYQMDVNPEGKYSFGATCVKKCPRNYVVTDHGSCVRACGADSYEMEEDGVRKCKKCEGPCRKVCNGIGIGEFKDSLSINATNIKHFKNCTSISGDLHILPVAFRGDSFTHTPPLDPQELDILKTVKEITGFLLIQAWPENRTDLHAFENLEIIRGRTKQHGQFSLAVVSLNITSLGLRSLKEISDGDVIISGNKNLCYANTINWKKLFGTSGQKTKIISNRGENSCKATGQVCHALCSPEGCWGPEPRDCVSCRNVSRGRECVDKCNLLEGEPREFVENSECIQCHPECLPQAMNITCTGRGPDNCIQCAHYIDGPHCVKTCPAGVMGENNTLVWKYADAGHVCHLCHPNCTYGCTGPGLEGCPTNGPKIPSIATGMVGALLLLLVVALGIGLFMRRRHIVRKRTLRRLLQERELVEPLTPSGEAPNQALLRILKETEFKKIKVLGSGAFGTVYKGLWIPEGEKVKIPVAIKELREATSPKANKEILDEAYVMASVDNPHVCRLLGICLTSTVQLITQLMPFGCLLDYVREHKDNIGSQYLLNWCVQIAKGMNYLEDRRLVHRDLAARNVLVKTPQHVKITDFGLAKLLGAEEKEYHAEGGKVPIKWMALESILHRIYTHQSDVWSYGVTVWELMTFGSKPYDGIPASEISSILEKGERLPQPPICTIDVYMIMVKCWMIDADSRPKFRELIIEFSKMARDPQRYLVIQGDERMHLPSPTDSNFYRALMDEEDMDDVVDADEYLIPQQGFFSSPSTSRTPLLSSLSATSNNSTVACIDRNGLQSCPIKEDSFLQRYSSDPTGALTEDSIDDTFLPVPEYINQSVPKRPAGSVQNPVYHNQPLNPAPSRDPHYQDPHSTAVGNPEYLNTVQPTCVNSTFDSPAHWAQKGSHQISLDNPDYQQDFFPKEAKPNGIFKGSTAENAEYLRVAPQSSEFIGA
Method in brief: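 This growth assay used Ba/F3 cells that depend on wild-type EGFR and are kept in EGF without IL3. Compounds were made up as 10 mM DMSO stocks and diluted 3-fold over 10 points. 120 nL went onto 600 cells/well. After 72 hours, 40 μL CellTiter-Glo was added and luminescence read on EnVision after 30 min.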

[4] = biological target: T5, EGFR exon 20 NPG Ins D770_N771 (Ba/F3 cells) (Homo sapiens, UniProt P00533, INS770NPG); assay: Inhibitor activity on EGFR-dependent cell growth (CellTiter-Glo, 72 h), Ba/F3 EGFR exon 20 NPG Ins; conditions: read-out: BaF3 NPG IC50
T5 construct: expressed in transfected cells; host or cells: Ba/F3 (murine pro-B cells), retroviral transduction, puromycin selection, IL3-independent pool
T5 sequence (P00533 with tags, fused parts or gaps INS770NPG): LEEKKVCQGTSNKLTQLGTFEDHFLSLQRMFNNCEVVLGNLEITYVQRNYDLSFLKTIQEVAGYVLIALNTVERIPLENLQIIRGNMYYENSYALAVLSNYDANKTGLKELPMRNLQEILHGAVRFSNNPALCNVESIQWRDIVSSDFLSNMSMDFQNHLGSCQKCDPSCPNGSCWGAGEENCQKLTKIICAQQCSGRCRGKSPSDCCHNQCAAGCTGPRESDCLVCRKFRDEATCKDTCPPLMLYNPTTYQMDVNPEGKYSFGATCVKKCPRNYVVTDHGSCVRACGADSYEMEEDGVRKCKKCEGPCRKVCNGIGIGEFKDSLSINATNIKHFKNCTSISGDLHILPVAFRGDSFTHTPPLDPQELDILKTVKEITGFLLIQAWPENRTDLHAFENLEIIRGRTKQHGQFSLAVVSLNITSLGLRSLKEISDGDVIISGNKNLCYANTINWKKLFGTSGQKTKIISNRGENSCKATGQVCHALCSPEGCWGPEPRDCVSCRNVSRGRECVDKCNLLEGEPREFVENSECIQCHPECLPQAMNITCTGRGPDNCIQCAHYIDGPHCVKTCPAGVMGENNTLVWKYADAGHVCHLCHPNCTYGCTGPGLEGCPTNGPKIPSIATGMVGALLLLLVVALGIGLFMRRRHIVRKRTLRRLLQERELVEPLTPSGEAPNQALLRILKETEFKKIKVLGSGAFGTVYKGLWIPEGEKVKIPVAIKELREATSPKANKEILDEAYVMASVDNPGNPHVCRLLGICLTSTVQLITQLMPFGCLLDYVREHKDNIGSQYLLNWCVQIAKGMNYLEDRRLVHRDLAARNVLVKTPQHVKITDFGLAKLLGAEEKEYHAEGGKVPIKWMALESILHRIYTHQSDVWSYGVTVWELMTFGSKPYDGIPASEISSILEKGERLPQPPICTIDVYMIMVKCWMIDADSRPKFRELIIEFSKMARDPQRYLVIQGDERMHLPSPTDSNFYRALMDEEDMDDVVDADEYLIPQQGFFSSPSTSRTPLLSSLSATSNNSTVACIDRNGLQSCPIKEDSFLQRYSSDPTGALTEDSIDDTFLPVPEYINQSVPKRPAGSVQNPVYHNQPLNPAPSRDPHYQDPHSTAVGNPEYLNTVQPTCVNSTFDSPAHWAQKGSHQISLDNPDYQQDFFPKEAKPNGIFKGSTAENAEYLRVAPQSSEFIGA
Method in brief: as §1

[5] = biological target: T5, EGFR exon 20 NPG Ins D770_N771 (Ba/F3 cells); assay: Inhibitor activity on EGFR phosphorylation (pEGFR AlphaLISA, 2 h), Ba/F3 EGFR exon 20 NPG Ins
Description: Example B. Inhibitor Activity on EGFR phosphorylation (pEGFR)
EGFR mutant Ba/F3 cells were generated by transduction with retrovirus containing vectors expressing EGFR L858R, EGFR exon 19del, EGFR L858R/C797S, EGFR exon 20 NPG Ins D770_N771, EGFR exon 20 ASV Ins V769_D770, or EGFR exon 20 SVD Ins D770_N771 genes along with a puromycin selection marker. Transduced cells are selected with puromycin for 7 days and are then be transferred into culture media without Interleukin 3 (IL3). Surviving cells are confirmed to express EGFR by Western blot and maintained as a pool. CUTO14 cells were obtained from Dr. Robert C. Doebele at the University of Colorado. The IC50 date are included in Table 6 and Table 7.
1.1 Cells are harvested from flask into cell culture medium and the cell number counted.
1.2 Cells are diluted with culture medium to the desired density and 40 μL of cell suspension is added into each well of 384-well cell culture plate and the seeding density is 50K cells/well (Ba/F3) or 12.5K cells/well (CUTO14).
2 Compound Preparation and Treatment
2.1 Test compounds are dissolved to 10 mM in a DMSO stock solution. 45 μL of stock solution is transferred to a 384 polypropylene plate (pp-plate). Perform 3-fold, 10-point dilution via transferring 15 μL compound into 30 μL DMSO using a TECAN (EVO200) liquid handler.
2.2 Spin plates at room temperature at 1,000 RPM for 1 minute.
2.3 Transfer 5 nL of diluted compound from compound source plate into the cell plate.
2.4 After compound treatment for 2 hours, perform pEGFR detection by AlphaLISA for compound treatment plates as described in “Detection” section.
3 Detection by pEGFR AlphaLISA (Perkin-Elmer)
3.1 Plates are removed from incubators and equilibrated at room temperature for 10 minutes, and media was removed
3.2 10 μL of lysis buffer is added and plates shaken at 600 rpm for 1 hr.
3.3 Prepare acceptor mix just before use and dispense 5 μL of acceptor mix to all the wells. Shake 350 rpm for Ihr in the dark
3.4 Prepare donor mix under low light conditions prior to use. Dispense 5 μL of donor mix to all the wells. Mix well on the shaker, seal and wrap in aluminum foil and incubate 1.5 hrs at room temperature in the dark
3.5 Transfer 18.5 μL mixture to OptiPlate 384, and read using an Envision. The IC50 date were included in Table 6 and Table 7.

[6] = biological target: T2, EGFR exon 20 ASV Ins V769_D770 (Ba/F3 cells); assay: Inhibitor activity on EGFR phosphorylation (pEGFR AlphaLISA, 2 h), Ba/F3 EGFR exon 20 ASV Ins; conditions: EGFR phosphorylation, AlphaLISA, 2 hours; read-out: ASV IC50 (pEGFR)
Method in brief: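 After a 2-hour exposure to compound (3-fold, 10-point series from 10 mM DMSO stock), cell lysates were assayed for pEGFR by AlphaLISA. Cells were retrovirally engineered, IL3-independent Ba/F3 lines expressing each EGFR mutant at 50K/well, or CUTO14 cells at 12.5K/well, giving IC50 values.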

T1 sequence (P00533 with tags, fused parts or gaps INS770SVD): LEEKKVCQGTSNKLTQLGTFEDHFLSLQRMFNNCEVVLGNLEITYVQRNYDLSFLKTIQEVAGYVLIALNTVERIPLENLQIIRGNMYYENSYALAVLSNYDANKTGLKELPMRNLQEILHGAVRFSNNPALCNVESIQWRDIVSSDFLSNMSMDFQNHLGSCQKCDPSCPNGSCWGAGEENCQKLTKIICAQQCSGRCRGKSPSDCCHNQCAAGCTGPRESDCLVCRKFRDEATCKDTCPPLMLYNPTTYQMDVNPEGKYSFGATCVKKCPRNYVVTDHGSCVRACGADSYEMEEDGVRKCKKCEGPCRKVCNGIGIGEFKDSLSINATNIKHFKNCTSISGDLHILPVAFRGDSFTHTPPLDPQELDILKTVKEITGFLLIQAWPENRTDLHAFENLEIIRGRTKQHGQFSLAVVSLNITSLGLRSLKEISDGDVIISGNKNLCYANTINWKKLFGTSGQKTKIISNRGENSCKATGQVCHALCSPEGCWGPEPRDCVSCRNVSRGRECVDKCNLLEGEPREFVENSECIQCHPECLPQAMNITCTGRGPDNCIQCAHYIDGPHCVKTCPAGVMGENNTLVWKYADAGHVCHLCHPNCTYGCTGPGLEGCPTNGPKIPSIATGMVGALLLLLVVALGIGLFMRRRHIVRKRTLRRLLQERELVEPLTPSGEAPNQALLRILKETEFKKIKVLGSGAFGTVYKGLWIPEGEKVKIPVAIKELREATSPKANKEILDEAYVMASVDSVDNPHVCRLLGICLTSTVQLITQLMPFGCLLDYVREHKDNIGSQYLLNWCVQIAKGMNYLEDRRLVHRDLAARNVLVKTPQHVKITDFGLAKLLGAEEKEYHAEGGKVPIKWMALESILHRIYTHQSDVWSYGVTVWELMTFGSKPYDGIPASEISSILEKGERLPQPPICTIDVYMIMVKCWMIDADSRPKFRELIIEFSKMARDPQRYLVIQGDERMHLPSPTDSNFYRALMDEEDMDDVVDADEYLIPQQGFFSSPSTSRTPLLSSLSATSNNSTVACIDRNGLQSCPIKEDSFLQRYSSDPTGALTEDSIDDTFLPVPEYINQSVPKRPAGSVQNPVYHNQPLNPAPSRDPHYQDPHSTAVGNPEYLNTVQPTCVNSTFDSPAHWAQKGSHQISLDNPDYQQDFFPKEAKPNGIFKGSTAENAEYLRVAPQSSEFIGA

SMILES: COc1c(Cl)cccc1Nc1c(-c2ccnc3c2OCC(=O)N3)[nH]c2c1C(=O)NCC2 [compound 308]
- IC50 [1]: 100 to 1000 nM
- IC50 [2]: 100 to 1000 nM
- IC50 [3]: 100 to 1000 nM
- IC50 (EGFR WT (Ba/F3 cells)): > 1000 nM
- IC50 [4]: 100 to 1000 nM
- IC50 [5]: < 100 nM
- IC50 [6]: < 100 nM

SMILES: CNc1nccc(-c2[nH]c3c(c2Nc2cccc(F)c2OC)C(=O)NCC3)n1 [Compound 691, 3-[(3-fluoro-2-methoxyphenyl)amino]-2-[2-(methylamino)pyrimidin-4-yl]-1H,5H,6H,7H-pyrrolo[3,2-c]pyridin-4-one]
- IC50 [1]: 100 to 1000 nM
- IC50 [2]: 100 to 1000 nM
- IC50 [3]: 100 to 1000 nM
- IC50 (EGFR WT (Ba/F3 cells)): 100 to 1000 nM
- IC50 [4]: 100 to 1000 nM
- IC50 [5]: < 100 nM
- IC50 [6]: < 100 nM

SMILES: Nc1nccc(-c2[nH]c3c(c2Nc2cccc(F)c2F)C(=O)NCC3)n1 [compound 202]
- IC50 [1]: 100 to 1000 nM
- IC50 [2]: 100 to 1000 nM
- IC50 [3]: 100 to 1000 nM
- IC50 (EGFR WT (Ba/F3 cells)): 100 to 1000 nM
- IC50 [4]: 100 to 1000 nM
- IC50 [5]: < 100 nM
- IC50 [6]: < 100 nM

SMILES: COc1nccc(-c2[nH]c3c(c2Nc2cccc(Cl)c2OC)C(=O)NCC3)n1 [compound 286]
- IC50 [1]: > 1000 nM
- IC50 [2]: > 1000 nM
- IC50 [3]: > 1000 nM
- IC50 (EGFR WT (Ba/F3 cells)): > 1000 nM
- IC50 [4]: > 1000 nM
- IC50 [5]: 100 to 1000 nM
- IC50 [6]: > 1000 nM

SMILES: COc1c(Cl)cccc1Nc1c(-c2ccnc(NC(=O)C3CC3)n2)[nH]c2c1C(=O)NCC2 [compound 221]
- IC50 [1]: 100 to 1000 nM
- IC50 [2]: 100 to 1000 nM
- IC50 [3]: 100 to 1000 nM
- IC50 (EGFR WT (Ba/F3 cells)): > 1000 nM
- IC50 [4]: 100 to 1000 nM
- IC50 [5]: < 100 nM
- IC50 [6]: 100 to 1000 nM

SMILES: COc1c(Cl)cccc1Nc1c(-c2ccnc(N)c2)[nH]c2c1C(=O)NCC2 [compound 285]
- IC50 [1]: 100 to 1000 nM
- IC50 [2]: 100 to 1000 nM
- IC50 [3]: 100 to 1000 nM
- IC50 (EGFR WT (Ba/F3 cells)): > 1000 nM
- IC50 [4]: 100 to 1000 nM
- IC50 [5]: < 100 nM
- IC50 [6]: < 100 nM

SMILES: Nc1nccc(-c2[nH]c3c(c2Nc2ccccc2)C(=O)NCC3)n1 [compound 283]
- IC50 [3]: < 100 nM
- IC50 (EGFR WT (Ba/F3 cells)): 100 to 1000 nM
- IC50 [4]: 100 to 1000 nM
- IC50 [5]: < 100 nM
- IC50 [6]: 100 to 1000 nM

SMILES: CNc1ccc2nccc(-c3[nH]c4c(c3Nc3cccc(Cl)c3OC)C(=O)NCC4)c2n1 [Compound 152, 3-((3-chloro-2-methoxyphenyl)amino)-2-(6-(methylamino)-1,5-naphthyridin-4-yl)-1,5,6,7-tetrahydro-4H-pyrrolo[3,2-c]pyridin-4-one]
- IC50 (EGFR WT (Ba/F3 cells)): < 100 nM
- IC50 [4]: < 100 nM
- IC50 [5]: < 100 nM
- IC50 [6]: < 100 nM

SMILES: COc1c(F)cccc1Nc1c(-c2ncnc3cccnc23)[nH]c2c1C(=O)NCC2 [Compound 154, 3-((3-fluoro-2-methoxyphenyl)amino)-2-(pyrido[3,2-d]pyrimidin-4-yl)-1,5,6,7-tetrahydro-4H-pyrrolo[3,2-c]pyridin-4-one]
- IC50 (EGFR WT (Ba/F3 cells)): < 100 nM
- IC50 [4]: > 1000 nM
- IC50 [5]: 100 to 1000 nM
- IC50 [6]: > 1000 nM

SMILES: Cc1c(F)cccc1Nc1c(-c2ccnc(N)c2F)[nH]c2c1C(=O)NCC2 [Compound 692, 2-(2-amino-3-fluoropyridin-4-yl)-3-[(3-fluoro-2-methylphenyl)amino]-1H,5H,6H,7H-pyrrolo[3,2-c]pyridin-4-one]
- IC50 [1]: 100 to 1000 nM
- IC50 [2]: 100 to 1000 nM
- IC50 [3]: 100 to 1000 nM
- IC50 (EGFR WT (Ba/F3 cells)): 100 to 1000 nM
- IC50 [4]: 100 to 1000 nM
- IC50 [5]: < 100 nM
- IC50 [6]: 100 to 1000 nM

SMILES: COCCNc1ccc2nccc(-c3[nH]c4c(c3Nc3cccc(Cl)c3OC)C(=O)NCC4)c2n1 [Compound 680, 3-[(3-chloro-2-methoxyphenyl)amino]-2-[6-[(2-methoxyethyl)amino]-1,5-naphthyridin-4-yl]-1H,5H,6H,7H-pyrrolo[3,2-c]pyridin-4-one; formic acid]
- IC50 [1]: < 100 nM
- IC50 [2]: < 100 nM
- IC50 [3]: < 100 nM
- IC50 (EGFR WT (Ba/F3 cells)): < 100 nM
- IC50 [4]: < 100 nM
- IC50 [5]: < 100 nM
- IC50 [6]: < 100 nM

SMILES: COc1c(Cl)cccc1Nc1c(-c2ccnc(C)n2)[nH]c2c1C(=O)NCC2 [compound 206]
- IC50 (EGFR WT (Ba/F3 cells)): 100 to 1000 nM
- IC50 [4]: 100 to 1000 nM
- IC50 [5]: < 100 nM
- IC50 [6]: 100 to 1000 nM

SMILES: CNc1nccc(-c2[nH]c3c(c2Nc2cccc(F)c2C)C(=O)NCC3)n1 [Compound 690, 3-[(3-fluoro-2-methylphenyl)amino]-2-[2-(methylamino)pyrimidin-4-yl]-1H,5H,6H,7H-pyrrolo[3,2-c]pyridin-4-one]
- IC50 (EGFR WT (Ba/F3 cells)): < 100 nM
- IC50 [4]: 100 to 1000 nM
- IC50 [5]: < 100 nM
- IC50 [6]: < 100 nM

SMILES: CCc1c(F)cccc1Nc1c(-c2ccnc(N)n2)[nH]c2c1C(=O)NCC2 [compound 195]
- IC50 [1]: 100 to 1000 nM
- IC50 [2]: 100 to 1000 nM
- IC50 [3]: 100 to 1000 nM
- IC50 (EGFR WT (Ba/F3 cells)): 100 to 1000 nM
- IC50 [4]: 100 to 1000 nM
- IC50 [5]: < 100 nM
- IC50 [6]: < 100 nM

SMILES: COc1c(F)cccc1Nc1c(-c2ccnc(N)c2F)[nH]c2c1C(=O)NCC2 [Compound 687, 2-(2-amino-3-fluoropyridin-4-yl)-3-[(3-fluoro-2-methoxyphenyl)amino]-1H,5H,6H,7H-pyrrolo[3,2-c]pyridin-4-one]
- IC50 [1]: 100 to 1000 nM
- IC50 [2]: 100 to 1000 nM
- IC50 [3]: 100 to 1000 nM
- IC50 (EGFR WT (Ba/F3 cells)): > 1000 nM
- IC50 [4]: 100 to 1000 nM
- IC50 [5]: < 100 nM
- IC50 [6]: 100 to 1000 nM

SMILES: Cc1c(F)cccc1Nc1c(-c2ccnc(N)n2)[nH]c2c1C(=O)NCC2 [compound 282]
- IC50 (EGFR WT (Ba/F3 cells)): 100 to 1000 nM
- IC50 [4]: 100 to 1000 nM
- IC50 [5]: < 100 nM
- IC50 [6]: < 100 nM

Reference: patent US20240101576A1, “HETEROCYCLIC INHIBITORS OF EGFR AND/OR HER2, FOR USE IN THE TREATMENT OF CANCER” (Scorpion Therapeutics, Inc., priority 2020, published 2024)
